Consider one compound from patent publication US20140343105A1, “NOVEL ORALLY ADMINISTERED DABIGATRAN FORMULATION” (BOEHRINGER INGELHEIM INTERNATIONAL GMBH, priority 2012, published 2014).

Data set [1] can be described thus: Solubility of DS in presence of hydrophilic polymers (CMC-Na) and cyclodextrins. Format: physicochemical. As to the method: (§1) 2 ml Eppendorf tubes can be filled with about 1.8 ml aqueous solution with a selected pH value. The volume used for the screening is 1.8 ml. The molar amount of cyclodextrin (CD) in the given volume is calculated for the given CD concentration. For a given molar ratio of active ingredient DS/CD the amount of active ingredient (DS) is calculated. Normally, a molar ratio of DS/CD=1/1 is targeted: 1 mol DS and 1 mol CD. As precise as possible, the calculated amount of DS is weighted into the tube exactly. The actual amount is reported.
(§2) According to the actual amount of DS the necessary volume of CD solution is calculated. As precise as possible, the requested volume of CD solution is pipetted into the tube. The actual volume pipetted is reported. The solution in the tube is placed on an Eppendorf Vario shaker. The solution is intensively shaken by means of ultrasound (Hielscher Ultrasound Processor) for 10 seconds at the maximum. It is payed attention to heat generation and overheating has to be avoided.
(§3) The tube is shaken for 1 hour in the Eppendorf Thermomixer at the given temperature and at 800 rpm. Subsequently, the pH value is checked and the given pH value adjusted accordingly, if necessary. The tube is shaken for 24 hours in the Eppendorf Thermomixer at the given temperature and at 800 rpm.
Eppendorf tubes are centrifuged for about 15 minutes at the given temperature, but at 40° C. at the maximum (max. temperature of the centrifuge), and 14,000 rpm. In case no clear supernatant is obtained centrifugation is repeated with adjusted rpm (revolutions per minute) and time. In case the supernatant is not clear and a filtration step is necessary the content of the tube is sucked or poured into 2 ml single use syringe. The supernatant is filtered through a 0.2 μm filter (Pall GHP Acrodisc 13 mm Syringe Filter 0.2 μm pore size). About 2-3 drops of the solution are discarded. The rest of the volume is collected in a second tube. If temperatures above room temperature (about 22° C.) are given, filters and tubes have to be tempered at that temperature prior to use.
(§4) The clear supernatant or filtrate is used for the analysis of the concentration. The pH value of the clear solution is analysed. The DS concentration of the clear solution is measured by UV/VIS spectroscopy (e.g., Hewlett-Packard 8453 UV/Visible Spectrophotometer).
DS, especially Dabigatranetexilat methanesulphonate, is tested for its solubility in dependency of the presence of various hydrophilic polymers and various cyclodextrins whereby the hydrophilic polymer is added to the aqueous solution before adding the DS.

Data set [2] in a line: Solubility of the active ingredient (DS) in cyclodextrin solutions at various pH values (UV/VIS). Format: physicochemical. As to the method: Dabigatranetexilat methanesulphonate is tested for its solubility in dependency of the presence of various cyclodextrins at various ph values as follows:
as §1, §2, §3
Eppendorf tubes are centrifuged for about 15 minutes at the given temperature, but at 40° C. at the maximum (max. temperature of the centrifuge), and 14,000 rpm. In case no clear supernatant is obtained centrifugation is repeated with adjusted rpm (revolutions per minute) and time. […]
as §4

Converted amounts (≈) assume the structure as drawn.

Broadly, the solubility is how much of the substance goes into solution per volume.

Take `CCCCCCOC(=O)NC(=N)c1ccc(NCc2nc3cc(C(=O)N(CCC(=O)OCC)c4ccccn4)ccc3n2C)cc1` [DS, dabigatran etexilate]: in data set [1] (addition of 0.05% to 0.5% of CMC-Na, α-CD 10% (w/v)), the “increase of the solubility of the DS and of the drug load DS/CD” value is on record as “up to 11%”. Further, in data set [1] (addition of a hydrophilic polymer before adding the DS), the “complexation efficiency of the CD” value is “significantly improved”. Further, the solubility at 24 h in data set [1] (aqueous α-cyclodextrin solution with CMC-Na, aqueous with cosolvent or surfactant or cyclodextrin, thermodynamic from solid, 14% α-CD solution at pH 3 with 0.25% CMC-Na) is roughly 67.3 mg/mL; in data set [2] (aqueous α-cyclodextrin solution, aqueous with cosolvent or surfactant or cyclodextrin, thermodynamic from solid, 10% (w/v) α-CD solution at pH 3), roughly 43 mg/mL (≈ 68.5 mM). In addition, the “g α-CD to complex 1 g API” value in data set [1] (α-CD, CMC-Na added) is recorded as “≈ 2.1 g”. The “mol α-CD necessary to complex 1 mol API” value in data set [1] (α-CD, CMC-Na added) is listed as “About 1.6 mol”; in data set [2] (α-CD 10% (w/v)), “About 1.7 mol”. Also, in data set [2] (all cyclodextrins tested, various pH values), the “effect of cyclodextrins on solubility of the active ingredient” value is reported as “significantly improve the solubility”.
